# Measurements: PubChem BioAssay (NCI)
#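 GI50: concentration for 50% inhibition of growth. Definition used: TGI = concentration required for complete inhibition of growth.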
# Columns and labels:
# Assay in all cases: growth of human tumour cells (NCI), 384-well format
# [1] = tested on: OVCAR-3 ovarian
# [2] = tested on: HL-60(TB) leukemia
# [3] = tested on: 786-0 renal
# [4] = tested on: UACC-257 melanoma
# [5] = tested on: SK-OV-3 ovarian
# [6] = tested on: HCC-2998 colon
# [7] = tested on: RXF 393 renal
# [8] = tested on: NCI/ADR-RES ovarian
# [9] = tested on: HOP-62 NSCLC
# [10] = tested on: SN12C renal
# [11] = tested on: HS 578T breast
# [12] = tested on: SK-MEL-28 melanoma
# [13] = tested on: COLO 205 colon
# [14] = tested on: A549 NSCLC
# [15] = tested on: HOP-92 NSCLC
# [16] = tested on: IGROV1 ovarian
# [17] = tested on: MDA-MB-231 breast
# [18] = tested on: SNB-19 CNS
# [19] = tested on: DU-145 prostate
# [20] = tested on: MCF7 breast
# [21] = tested on: MOLT-4 leukemia
# [22] = tested on: SF-539 CNS
# [23] = tested on: HT29 colon
# [24] = tested on: BT-549 breast
# [25] = tested on: OVCAR-5 ovarian
# [26] = tested on: NCI-H226 lung
# [27] = tested on: CAKI-1 renal
# [28] = tested on: U251 glioblastoma
# [29] = tested on: SF-268 CNS
# [30] = tested on: SR leukemia
# [31] = tested on: MDA-MB-468 breast
# [32] = tested on: T-47D breast
# [33] = tested on: UACC-62 melanoma
# [34] = tested on: OVCAR-4 ovarian
# [35] = tested on: TK-10 renal
# [36] = tested on: EKVX NSCLC
# [37] = tested on: A498 renal
# [38] = tested on: NCI-H322M lung
# [39] = tested on: CCRF-CEM leukemia
# [40] = tested on: HCT-15 colon
# [41] = tested on: SW-620 colon
# [42] = tested on: LOX IMVI melanoma
# [43] = tested on: NCI-H23 lung
# [44] = tested on: RPMI-8226 leukemia
# [45] = tested on: MALME-3M melanoma
# [46] = tested on: SK-MEL-5 melanoma
# [47] = tested on: NCI-H522 lung
# [48] = tested on: PC-3 prostate
# [49] = tested on: HCT-116 colon
# [50] = tested on: KM12 colon
# [51] = tested on: SNB-75 CNS
# [52] = tested on: SK-MEL-2 melanoma
# [53] = tested on: UO-31 renal
# [54] = tested on: SF-295 CNS
# [55] = tested on: K-562 leukemia
# [56] = tested on: ACHN renal
# [57] = tested on: M14 melanoma
compound,measurement,setting,value
COc1cc2c(cc1F)C(c1ccccc1Cl)=Nc1c(n[nH]c1C)N2,GI50,[1],225 nM
same,TGI,[1],823 nM
same,GI50,[2],166 nM
same,TGI,[2],306 nM
same,GI50,[3],508 nM
same,TGI,[3],11.9 µM
same,GI50,[4],11.4 µM
same,TGI,[4],23.5 µM
same,GI50,[5],757 nM
same,TGI,[5],16.4 µM
same,GI50,[6],108 nM
same,TGI,[6],16.7 µM
same,GI50,[7],207 nM
same,TGI,[7],1230 nM
same,GI50,[8],304 nM
same,TGI,[8],16 µM
same,GI50,[9],521 nM
same,TGI,[9],14.1 µM
same,GI50,[10],632 nM
same,TGI,[10],14.2 µM
same,GI50,[11],190 nM
same,TGI,[11],464 nM
same,GI50,[12],778 nM
same,TGI,[12],18.6 µM
same,GI50,[13],367 nM
same,TGI,[13],12.1 µM
same,GI50,[14],599 nM
same,TGI,[14],15.6 µM
same,GI50,[15],960 nM
same,TGI,[15],8.17 µM
same,GI50,[16],679 nM
same,TGI,[16],9.69 µM
same,GI50,[17],650 nM
same,TGI,[17],16.8 µM
same,GI50,[18],726 nM
same,TGI,[18],15.1 µM
same,GI50,[19],2020 nM
same,TGI,[19],13 µM
same,GI50,[20],502 nM
same,TGI,[20],19.8 µM
same,GI50,[21],146 nM
same,TGI,[21],283 nM
same,GI50,[22],351 nM
same,TGI,[22],1500 nM
same,GI50,[23],313 nM
same,TGI,[23],12.5 µM
same,GI50,[24],231 nM
same,TGI,[24],1080 nM
same,GI50,[25],5.32 µM
same,TGI,[25],19.8 µM
same,GI50,[26],688 nM
same,TGI,[26],2660 nM
same,GI50,[27],512 nM
same,TGI,[27],4.16 µM
same,GI50,[28],453 nM
same,TGI,[28],12.3 µM
same,GI50,[29],370 nM
same,TGI,[29],1770 nM
same,GI50,[30],103 nM
same,TGI,[30],238 nM
same,GI50,[31],180 nM
same,TGI,[31],387 nM
same,GI50,[32],794 nM
same,TGI,[32],17.7 µM
same,GI50,[33],334 nM
same,TGI,[33],12 µM
same,GI50,[34],2260 nM
same,TGI,[34],19.8 µM
same,GI50,[35],860 nM
same,TGI,[35],10.3 µM
same,GI50,[36],597 nM
same,TGI,[36],13.8 µM
same,GI50,[37],498 nM
same,TGI,[37],17.2 µM
same,GI50,[38],4.44 µM
same,TGI,[38],19.9 µM
same,GI50,[39],145 nM
same,TGI,[39],288 nM
same,GI50,[40],304 nM
same,TGI,[40],19.5 µM
same,GI50,[41],336 nM
same,TGI,[41],11.1 µM
same,GI50,[42],528 nM
same,TGI,[42],8.78 µM
same,GI50,[43],690 nM
same,TGI,[43],16.5 µM
same,GI50,[44],253 nM
same,TGI,[44],7.32 µM
same,GI50,[45],12.6 µM
same,TGI,[45],25.2 µM
same,GI50,[46],236 nM
same,TGI,[46],12 µM
same,GI50,[47],202 nM
same,TGI,[47],506 nM
same,GI50,[48],709 nM
same,TGI,[48],21.1 µM
same,GI50,[49],393 nM
same,TGI,[49],15.1 µM
same,GI50,[50],274 nM
same,TGI,[50],12.1 µM
same,GI50,[51],320 nM
same,TGI,[51],1390 nM
same,GI50,[52],459 nM
same,TGI,[52],4.31 µM
same,GI50,[53],781 nM
same,TGI,[53],2080 nM
same,GI50,[54],452 nM
same,TGI,[54],16.2 µM
same,GI50,[55],252 nM
same,TGI,[55],13.6 µM
same,GI50,[56],1350 nM
same,TGI,[56],13.3 µM
same,GI50,[57],339 nM
same,TGI,[57],15.9 µM
